Patent publication US6159733A, “Method for photoinactivating malignant cells” (priority 1996, dated 2000)
Entries after “also recorded” stand apart in the source; their conditions may differ.

Key:
parasites = conditions: blood products; cited from earlier work
[1] = tested on: pluripotent stem cells (Ly-5.1 donor BM in Ly-5.2 mice); assay: Bone marrow transplantation and chimerism assay; type: in vivo; conditions: for mice died two months after transplant: sub-lethally irradiated
Source text: Animals. C57B1/6 (Ly-5.2) and B6SJ-cd45 ^b pep 3^b /BOY J (Ly-5.1), were obtained from The Jackson Laboratories (Bar Harbor, Me.) and were maintained in the animal facility of the New York Blood Center. After gamma-irradiation, the animals were housed in microisolator cages and provided with autoclaved food and autoclaved acidified water (pH=3) ad libitum. Preparation of bone marrow cell suspensions--Ly-5.1 mice were used as the source of donor BM. Mice (8-10 weeks old) were killed and the BM was harvested by flushing the femoral shafts with Hank's balanced salt solution (HBSS), pH 7.4. The cell suspensions were centrifuged, washed once and the cells were finally resuspended in HBSS--10% vol/vol fetal bovine serum (FBS, Gemini Bioproducts Inc., Calabasas, Calif.).
Photosensitization. Aliquots of a 1.87 mM Pc 4 (kindly provided by Dr. M. E. Kenney) stock solution in dimethyl sulfoxide were kept at -80° C. in autoclaved brown glass vials. Immediately prior to the photosensitization, Pc4 was thawed and diluted in dimethyl formamide to yield a 10 μM working solution. […] Pc 4 was used at 15 nM throughout the experiments.
BM and cell line samples, were incubated with 15 nM Pc 4 for two hours at 37° C. at cell concentrations of 1.5×10^7 cells/mL. Aliquots of 1.5 mL were transferred to 24-well plates; separate plates were used for each sample.
Photoinactivation. The light source used was a filtered xenon short arc lamp (Versa-Light, Model UV-R6G, Medic Lightech, Ltd., Haifa, Israel). It was used to deliver red light (λ 600-700 nm) to the sensitized cells. After a 20 minute warm up period of the instrument, the distance from the light source to the bottom of the 24-well plate was adjusted to obtain a fluence rate of 26.6 mW/cm^2, as measured with a radiometer (Model IL 1350, International Light, Newburyport, Mass.). Samples were placed under the light source and were stirred during the irradiations. Before and after the irradiations, samples were kept in the dark.
Bone marrow transplantation and chimerism assay. Two month old Ly-5.2 mice were used as recipients in the BM reconstitution assays. […] The irradiated recipient Ly-5.2 mice were divided into six groups. The mice in these groups received either HBSS, untreated control bone marrow, or Pc 4-sensitized BM that was photoirradiated with 0, 6, 12 or 18 J/cm^2, respectively. Each mouse received 250,000 donor BM cells.
Six months after transplantation, peripheral blood was obtained by tail-vein puncture and 40 μL samples were aliquoted into tubes that contained the following antibody cocktails. The first tube contained 4 μL of phycoerythrin (PE) conjugated anti-Ly-5.1 antibody (CD45.1, kind gift from Dr. JoseCarlos Segovia) and 1 μL of fluorescein (FITC) conjugated anti-B220 antibody (B cells; Pharmingen, San Diego, Calif.), the second tube contained 4 μL anti-Ly-5.1^PE and 1 μL of anti-CD3^FITC (T cells; Pharmingen), and the third tube contained 4 μL anti-Ly-5.1^PE and 1 μL of anti-Gr-1^FITC (granulocytes; Pharmingen). Following a 20 minute incubation at room temperature, 2 mL of FACS Lysing Solution (Becton Dickinson (BD), San Jose, Calif.) was added to each sample followed by gentle mixing. After 10 minutes the samples were centrifuged and the pellets were resuspended in 3 mL PBS. After centrifugation, the washed pellets were resuspended in 2% vol/vol formalin--PBS pH 7.4 and the samples were analyzed by flow cytometry within 3 hours after staining.

[2] = tested on: pluripotent stem cells (c-kit^+,Sca-1^+); assay: Uptake of Pc 4, flow cytometry; type: cell-based, murine; conditions: for Pc 4 content / Pc 4 content per cell volume: 15 nM
Method: (§1) In mixing experiments, aliquots of Ly-5.2 BM and cell lines samples were mixed at different ratios. The combined cell concentration of each sample was 1.5×10^7 cells/mL. […] The cell lines were stained with anti-Ly-5.1^FITC. This treatment allowed clear resolution of the relatively small ABE-8.1/2 and BC3A cells from the bone marrow granulocytes. Immediately prior to the analyses, propidium iodide (PI, 0.5 μg/mL) was added to the samples to allow exclusion of dead cells (PI^+) from the analyses. The samples were analyzed in a FACStar^PLUS (BD) that was equipped with an argon ion laser tuned to 488 nm (200 mW) and a dye laser tuned to 610 nm (300 mW). FITC, PE, PI and Pc 4 fluorescence emissions were collected through 530/30, 575/42, 660/10, 670/10 nm band pass filters, respectively.
(§2) Cell size. Microscopic measurements of at least 20 cells were performed using a calibrated micrometer. To determine the cell size of the BM progenitor subsets, the c-kit^+,Sca-1^- and c-kit^+,Sca-1^+ fractions were sorted. The sorted cells were centrifuged and the pellets were resuspended in a 20 μl of HBBS. Samples were deposited onto microscope slides and covered with a cover slip. Cell diameters of 7.7±0.2 (c-kit^+,Sca-1^+), 8.4±0.3 (c-kit^+,Sca-1^-), 10.9±0.2 (BC3A), 11.1±0.2 (ABE-8.1/2), 13.0±0.3 (L1210), 14.2±0.3 (P815), 15.0±0.4 μm (WEHI-3) were obtained.

[3] = tested on: progenitor cells (c-kit^+,Sca-1^-); assay: Uptake of Pc 4, flow cytometry; type: cell-based, murine
Method: as §1, §2

[4] = 1.5×10^6 cells/ml during incubation
[5] = 1.5×10^7 cells/ml during incubation
[6] = 15 nM, 1.5×10^6 cells/ml during incubation
[7] = 15 nM, 1.5×10^7 cells/ml during incubation

CN(C)CCC[Si](C)(C)O[Si]1(O)n2c3c4ccccc4c2N=C2N=C(N=c4c5ccccc5c(n41)=NC1=NC(=N3)c3ccccc31)c1ccccc12 (stereo not drawn) [Pc 4, hydroxysiloxy-dimethylpropyl-N-dimethyl silicon phthalocyanine]
photoinactivation of parasites (parasites): effectively photoinactivate
long term repopulating (LTR) ability / survival of the pluripotent stem cells ([1]; 1.5×10^7 cells/mL, 18 J/cm^2): not affected by the photoinactivation procedure; also recorded: no adverse affect
mortality ([1]; pilot, lethally irradiated (8.5 Gy), 70,000 untreated or treated donor BM cells): All mice that received 70,000 cells died within one month
Ly-5.1 chimerism in peripheral blood granulocytes, T cells and B cells ([1]; pilot, lethally irradiated (8.5 Gy), 250,000 donor cells (untreated or treated 15 nM, 1.5×10^7 cells/mL, 18 J/cm2), after 4 months, most mice): > 70%
difference in chimerism levels from untreated BM group ([1]; six months, 18 J/cm^2): not significant
chimerism level, granulocytes ([1]; six months, 250,000 BM cells, 18 J/cm^2, untreated BM 0.49±0.01 (p=0.42)): 0.38±0.08
chimerism level, B cells ([1]; six months, 250,000 BM cells, 18 J/cm^2, untreated BM 0.50±0.12 (p=0.53)): 0.39±0.11
chimerism level, T cells ([1]; six months, 250,000 BM cells, 18 J/cm^2, untreated BM 0.72±0.07 (p=0.42)): 0.60±0.12
mice died two months after transplant ([1]; Pc 4, 0 J/cm^2): 1/6
mice died two months after transplant ([1]; Pc 4, 6 J/cm^2): 1/6
mice died two months after transplant ([1]; Pc 4, 18 J/cm^2): 1/6
Pc 4 content [2, 4]: 109 ± 6.5 Mean fluorescence/cell
Pc 4 content per cell volume [2, 4]: 0.50 Mean fluorescence/μm^3
Pc 4 content [2, 5]: 54 ± 6.9 Mean fluorescence/cell
Pc 4 content per cell volume [2, 5]: 0.23 Mean fluorescence/μm^3
difference in Pc 4 content, pluripotent stem cells vs committed progenitors ([2]; 1.5×10^7 cells/mL (p=0.26)): not significant
Pc 4 content [3, 6]: 136 ± 7.8 Mean fluorescence/cell
Pc 4 content per cell volume [3, 6]: 0.44 Mean fluorescence/μm^3
Pc 4 content [3, 7]: 68 ± 8.2 Mean fluorescence/cell
Pc 4 content per cell volume [3, 7]: 0.22 Mean fluorescence/μm^3
cell concentration at which uptake reached a plateau ([3]; 15 nM, BM progenitor cells): 8.0×10^5 cells/mL
difference in Pc 4 content, committed progenitors vs ABE-8.1/2 ([3]; 1.5×10^7 cells/mL (p=0.07)): not quite significant
difference in Pc 4 content, committed progenitors vs BC3A ([3]; 1.5×10^7 cells/mL (p=0.29)): not significant
reduction of Pc 4 uptake ([3]; BM progenitors, from 8.0×10^5 to 1.5×10^7 cells/mL): 1.8 fold
